Source: PubChem BioAssay AID330 (DTP/NCI, 2004)
Values joined by “and” are separate entries in the source; they are usually repeats but may differ in a detail not shown here. Equal entries are not always repeated. Toxic doses and inconclusive results are not listed. Square brackets hold non-standard residues; d marks the D form. Peptide text beside a SMILES is read from it. Tyr(3-NO2) = N[CH](Cc1ccc(O)c([N+](=O)[O-])c1)C(=O)O

Test system: P388 leukemia ip, CD2F1 mice, survival T/C
Test: NCI In Vivo Anticancer Drug Screen. Data for tumor model P388 Leukemia (intraperitoneal) in CD2F1 (CDF1) mice
Conditions: endpoint: median survival time, higher = longer survival
In short: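 Mice carrying the transplanted tumor received test compound or vehicle. Survival was recorded in each group, and the value is the treated-group measurement divided by that of the vehicle-treated control group.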

[1] = dose: 50.0 mg/kg/injection, schedule: Q01DX005 (ip), vehicle: Klucel (hydroxypropylcellulose) (HPC)
[2] = dose: 100.0 mg/kg/injection, schedule: Q01DX005 (ip), vehicle: Klucel (hydroxypropylcellulose) (HPC)
[3] = dose: 200.0 mg/kg/injection, schedule: Q01DX005 (ip), vehicle: Klucel (hydroxypropylcellulose) (HPC)
[4] = dose: 60.0 mg/kg/injection, schedule: Q01DX005 (ip), vehicle: saline with Tween-80
[5] = dose: 120.0 mg/kg/injection, schedule: Q01DX005 (ip), vehicle: saline with Tween-80
[6] = dose: 240.0 mg/kg/injection, schedule: Q01DX005 (ip), vehicle: saline with Tween-80

Cc1nnc(Cc2ccco2)c2n[nH]c(C)c12
T/C (dose: 50.0 mg/kg/injection, schedule: Q01DX009 (ip), vehicle: Klucel (hydroxypropylcellulose) (HPC)): 96 % of control | T/C (dose: 100.0 mg/kg/injection, schedule: Q01DX009 (ip), vehicle: Klucel (hydroxypropylcellulose) (HPC)): 99 % of control | T/C (dose: 200.0 mg/kg/injection, schedule: Q01DX009 (ip), vehicle: Klucel (hydroxypropylcellulose) (HPC)): 100 % of control

O=C1C=C(OCc2ccccc2)C(=O)C(OCc2ccccc2)=C1
T/C [1]: 94 % of control | T/C [2]: 100 % of control | T/C [3]: 104 % of control

Cc1c([O-])on[n+]1Cc1ccccc1
T/C [4]: 102 % of control

ClC(Cl)CN(Cc1ccccc1)c1ncc[nH]1
T/C (dose: 6.25 mg/kg/injection, schedule: Q01DX001 (ip), vehicle: saline): 105 % of control | T/C (dose: 12.5 mg/kg/injection, schedule: Q01DX001 (ip), vehicle: saline): 104 % of control | T/C (dose: 25.0 mg/kg/injection, schedule: Q01DX001 (ip), vehicle: saline): 105 % of control

CCOC(=O)C(=C=[N-])[n+]1ccc(C)cc1
T/C (dose: 6.25 mg/kg/injection, schedule: Q01DX009 (ip), vehicle: saline sonified): 90 % of control | T/C (dose: 12.5 mg/kg/injection, schedule: Q01DX009 (ip), vehicle: saline sonified): 90 % of control | T/C (dose: 25.0 mg/kg/injection, schedule: Q01DX009 (ip), vehicle: saline sonified): 90 % of control

Cc1ccccc1-n1c(=S)n(-c2ccc(Cl)cc2)c2nc3ccccc3nc1/c2=N/Nc1ccccc1
T/C (dose: 12.5 mg/kg/injection, schedule: Q01DX005 (ip), vehicle: saline with Tween-80): 95 % of control | T/C (dose: 25.0 mg/kg/injection, schedule: Q01DX005 (ip), vehicle: saline with Tween-80): 96 % of control | T/C (dose: 50.0 mg/kg/injection, schedule: Q01DX005 (ip), vehicle: saline with Tween-80): 94 % of control

COc1ccc(CCNC(=O)c2c3nc4c(C(=O)NCCc5ccc(OC)cc5)ccc(C)c4oc-3c(C)c(=O)c2N)cc1
T/C (dose: 50.0 mg/kg/injection, schedule: Q04DX003 (ip), vehicle: DMSO): 98 % of control | T/C (dose: 100.0 mg/kg/injection, schedule: Q04DX003 (ip), vehicle: DMSO): 100 % of control | T/C (dose: 200.0 mg/kg/injection, schedule: Q04DX003 (ip), vehicle: DMSO): 98 % of control

CC(C)(C)OOC(=O)C1CCCCC1
T/C [4]: 100 % of control | T/C [5]: 103 % of control | T/C [6]: 92 % of control

CC(C)=CC(=O)OCCN(C)C
T/C (dose: 50.0 mg/kg/injection, schedule: Q01DX009 (ip), vehicle: saline): 109 % of control | T/C (dose: 100.0 mg/kg/injection, schedule: Q01DX009 (ip), vehicle: saline): 93 % of control | T/C (dose: 200.0 mg/kg/injection, schedule: Q01DX009 (ip), vehicle: saline): 93 % of control

CC(C)(C)N1COCO[C@H]2CCC[C@@H]21
T/C (dose: 25.0 mg/kg/injection, schedule: Q04DX002 (ip), vehicle: Klucel (hydroxypropylcellulose) (HPC)): 100 % of control | T/C (dose: 50.0 mg/kg/injection, schedule: Q04DX002 (ip), vehicle: Klucel (hydroxypropylcellulose) (HPC)): 102 % of control | T/C (dose: 100.0 mg/kg/injection, schedule: Q04DX002 (ip), vehicle: Klucel (hydroxypropylcellulose) (HPC)): 114 % of control | T/C (dose: 200.0 mg/kg/injection, schedule: Q04DX002 (ip), vehicle: Klucel (hydroxypropylcellulose) (HPC)): 100 % of control and 123 % of control

Nc1nc2c(=O)[nH]c(=O)[nH]c2n1C1OC(CO)C(O)C1O (stereo not given)
T/C [4]: 117 % of control

CC(C)N[C@@H]1CCC[C@@H]2c3ccccc3[C@@]21O
T/C (dose: 60.0 mg/kg/injection, schedule: Q01DX005 (ip), vehicle: saline): 96 % of control | T/C (dose: 120.0 mg/kg/injection, schedule: Q01DX005 (ip), vehicle: saline): 95 % of control

NC(=S)c1ccc(N)cc1
T/C (dose: 100.0 mg/kg/injection, schedule: Q04DX003 (ip), vehicle: Klucel (hydroxypropylcellulose) (HPC)): 100 % of control | T/C (dose: 200.0 mg/kg/injection, schedule: Q04DX003 (ip), vehicle: Klucel (hydroxypropylcellulose) (HPC)): 106 % of control

O/N=C(/Cc1nc2cc(Cl)c(Cl)cc2nc1C/C(=N/O)c1cccnc1)c1cccnc1
T/C [4]: 102 % of control | T/C [5]: 107 % of control | T/C [6]: 107 % of control

CN(C)c1ccc(/C=C/c2ccnc3ccc4ccccc4c23)cc1
T/C (dose: 50.0 mg/kg/injection, schedule: Q01DX009 (ip), vehicle: saline with Tween-80): 98 % of control | T/C (dose: 100.0 mg/kg/injection, schedule: Q01DX009 (ip), vehicle: saline with Tween-80): 100 % of control | T/C (dose: 200.0 mg/kg/injection, schedule: Q01DX009 (ip), vehicle: saline with Tween-80): 110 % of control

CNc1c(C(=O)Nc2ccccc2)c(=O)n(C)c(=O)n1C
T/C (dose: 100.0 mg/kg/injection, schedule: Q01DX001 (ip), vehicle: Klucel (hydroxypropylcellulose) (HPC)): 94 % of control | T/C (dose: 200.0 mg/kg/injection, schedule: Q01DX001 (ip), vehicle: Klucel (hydroxypropylcellulose) (HPC)): 92 % of control | T/C (dose: 400.0 mg/kg/injection, schedule: Q01DX001 (ip), vehicle: Klucel (hydroxypropylcellulose) (HPC)): 93 % of control

[C-]#Cc1ccccc1.[C-]#Cc1ccccc1.[Cu+2]
T/C (dose: 12.5 mg/kg/injection, schedule: Q04DX003 (ip), vehicle: saline with Tween-80): 91 % of control | T/C (dose: 25.0 mg/kg/injection, schedule: Q04DX003 (ip), vehicle: saline with Tween-80): 86 % of control | T/C (dose: 50.0 mg/kg/injection, schedule: Q04DX003 (ip), vehicle: saline with Tween-80): 87 % of control

COc1nc(NC2OC(COC(C)=O)C(OC(C)=O)C(OC(C)=O)C2OC(C)=O)c(N=CC=Nc2c(NC3OC(COC(C)=O)C(OC(C)=O)C(OC(C)=O)C3OC(C)=O)nc(OC)n(C)c2=O)c(=O)n1C (stereo not given)
T/C [4]: 86 % of control | T/C [5]: 92 % of control | T/C [6]: 94 % of control

COc1c(C)c(O)c2c(c1O)/C(=C/N=NC(N)=S)C(Cl)=N2
T/C (dose: 100.0 mg/kg/injection, schedule: Q01DX001 (ip), vehicle: saline with Tween-80): 103 % of control | T/C (dose: 200.0 mg/kg/injection, schedule: Q01DX001 (ip), vehicle: saline with Tween-80): 103 % of control | T/C (dose: 400.0 mg/kg/injection, schedule: Q01DX001 (ip), vehicle: saline with Tween-80): 96 % of control

COc1ccc2nc3cc(Cl)ccc3c(Nc3cccc(NC(C)=O)c3)c2n1
T/C (dose: 6.25 mg/kg/injection, schedule: Q01DX009 (ip), vehicle: other): 108 % of control | T/C (dose: 12.5 mg/kg/injection, schedule: Q01DX009 (ip), vehicle: other): 102 % of control | T/C (dose: 25.0 mg/kg/injection, schedule: Q01DX009 (ip), vehicle: other): 102 % of control | T/C (dose: 50.0 mg/kg/injection, schedule: Q01DX009 (ip), vehicle: other): 98 % of control | T/C (dose: 100.0 mg/kg/injection, schedule: Q01DX009 (ip), vehicle: other): 99 % of control

CC(C)(S)[C@H]1NC(=O)NC1=O
T/C [1]: 99 % of control | T/C [2]: 99 % of control | T/C [3]: 103 % of control

COc1cc2c(c(OC)c1OC)-c1ccc(OC)c(=O)cc1[C@@H](N(C)C(=O)C(F)(F)F)CC2
T/C (dose: 1.25 mg/kg/injection, schedule: Q01DX009 (ip), vehicle: Klucel (hydroxypropylcellulose) (HPC)): 154 % of control and 163 % of control

Cc1c(C)c(C[P+](CCP(c2ccccc2)c2ccccc2)(c2ccccc2)c2ccccc2)c(C)c(C)c1C[P+](CCP(c1ccccc1)c1ccccc1)(c1ccccc1)c1ccccc1
T/C (dose: 3.12 mg/kg/injection, schedule: Q04DX002 (ip), vehicle: saline with Tween-80): 100 % of control | T/C (dose: 6.25 mg/kg/injection, schedule: Q04DX002 (ip), vehicle: saline with Tween-80): 102 % of control | T/C (dose: 12.5 mg/kg/injection, schedule: Q04DX002 (ip), vehicle: saline with Tween-80): 100 % of control and 101 % of control

COc1ccc2c(c1O)-c1cc(O)cc3c1C(C2)NCC3 (stereo not given)
T/C (dose: 0.32 mg/kg/injection, schedule: Q04DX003 (ip), vehicle: DMSO): 98 % of control | T/C (dose: 0.63 mg/kg/injection, schedule: Q04DX003 (ip), vehicle: DMSO): 95 % of control | T/C (dose: 1.25 mg/kg/injection, schedule: Q04DX003 (ip), vehicle: DMSO): 99 % of control | T/C (dose: 2.5 mg/kg/injection, schedule: Q04DX003 (ip), vehicle: DMSO): 98 % of control | T/C (dose: 5.0 mg/kg/injection, schedule: Q04DX003 (ip), vehicle: DMSO): 100 % of control

NC(=O)C(Cc1ccc(O)c([N+](=O)[O-])c1)NC(=O)C(N)Cc1ccccc1 (stereo not given) (H-Phe-[Tyr(3-NO2)]-NH2; configuration not given here)
T/C [1]: 103 % of control | T/C [2]: 96 % of control | T/C [3]: 96 % of control

COC(=N)C1=CC(C)(C)N(O)C1(C)C
T/C (dose: 100.0 mg/kg/injection, schedule: Q01DX001 (ip), vehicle: saline): 96 % of control | T/C (dose: 200.0 mg/kg/injection, schedule: Q01DX001 (ip), vehicle: saline): 102 % of control | T/C (dose: 400.0 mg/kg/injection, schedule: Q01DX001 (ip), vehicle: saline): 98 % of control
